Experimental data published in patent publication US8859527B2 (priority 2009, dated 2014).
Read-outs that look alike come from different tables or passages of the source.

What was measured:
[1] = system: BGC-823 (human gastric cancer cell line); test: in vitro growth inhibition of tumor cells, BGC-823; assay type: cell-based; settings: 48 hours
Protocol: (§1) The tumor strains are A-549 (human lung adenocarcinoma cell line), BGC-823 (human gastric cancer cell line), C-6 (rat neurogliocytoma cell line), Hep G2 (human hepatic cancer cell line), HL-60 (human leukemia cell line), K-562 (human erythremia cell line) and Hela (human cervical cancer cell line). […] The drug was prepared as a stock solution of 10^−2 M by using physiological saline and diluted into the test solution in a gradient composed of five concentrations: C1 5×10^−5 M, C2 10^−5 M, C3 10^−6 M, C4 10^−7 M and C5 10^−8 M.
(§2) Experimental method: different tumor cells in exponential growth phase are inoculated in 96-well plates in a certain amount and the selected samples are added after the cells are cultured for 24 hours (suspension cells can be directly added after being inoculated), after the cells are incubated at 37° C. and 5% CO2 for another 48 hours, […] is added for further incubation for another 4 hours, and finally the samples are examined on a microplate reader after dissolving with DMSO.

[2] = system: A-549 (human lung adenocarcinoma cell line); test: in vitro growth inhibition of tumor cells, A-549; assay type: cell-based; settings: A549, 48 hours
Protocol: as §1, §2

[3] = system: human non-small cell lung cancer H460 xenograft tumor; settings: mouse, in vivo, iv, 20 mg/kg
Protocol: (§6) The test article: the inclusion complex of DPT and SBE-β-CD, the content is 5.05%. Preparation Method: it is dissolved in a proper amount of saline after gentle shaking and the concentration is 0.4 mg/ml (which is the test solution for the 8 mg/kg group); other concentrations are prepared by diluting the stock solution of 0.4 mg/ml to the required concentration with physiological saline.
(§7) The control article: Etoposide injection produced by Qilu Pharmaceutical Co., Ltd. the batch number is 8060012EV, specification: 5 ml:0.1 g. Preparation Method: Etoposide injection is a kind of transparent sticky liquid and it is diluted with a proper amount of physiological saline and gently shaken and prepared as a homogeneous solution, and the concentration is 1 mg/ml.
(§8) Dosage setting: the high dosage group of DPT is 8 mg/kg, the medium dosage group of DPT is 4 mg/kg and the low dosage group of DPT is 2 mg/kg. The dosage for the positive control group of Etoposide injection is 20 mg/kg.
(§9) Experimental animals: source, germline and strain: BALB/c nude mice are provided by the Institute of Experimental Animals, Chinese Academy of Medical Sciences. Age: 35-40 days; body weight: 18-24 g; gender: male.
(§10) Transplanted tumor: the transplanted tumor for human nonsmall-cell lung cancer H460 in nude mice, and it is established by inoculating the human nonsmall-cell lung cancer H460 cell line hypodermically in the armpit of nude mice. 2×10^6 cells are inoculated.
(§11) Human non-small cell lung cancer H460 cell line in exponential phase of growth is prepared as a cell suspension of 2×10^7/ml under sterile conditions, 0.1 ml thereof is inoculated hypodermically in the right armpit of nude mice. The diameters of the transplanted tumors in the nude mice are measured by a sliding caliper, and the animals are randomly divided into different groups when the tumors grow up to the amount of 100 to 300 mm^3. The antitumor efficacy of the test article is dynamically observed by measuring the diameter of the tumor. The diameters of the tumor are determined once for every two days. The administration volume is 0.4 ml/20 g. The mice are killed 21 days after administration, and the tumors are surgically isolated and weighed. The calculation formula for tumor volume (TV) is as follows: TV=½×a×b^2 Wherein a and b represents for the length and the width, respectively.
(§12) The relative tumor volume (RTV) is calculated according to the measured results, and the calculation formula is as follows: RTV=Vt/V0. Wherein V0 is the tumor size measured during grouping and drug administration (d0), Vt is the tumor size in every measurements. The evaluation parameter for antitumor activity is the relative tumor growth rate T/C (%) which is calculated according to the formula as follows:
(§13) [formula] TRTV: the treatment group RTV; CRTV: the negative control group: RTV.

[4] = system: K-562 (human erythremia cell line); test: in vitro growth inhibition of tumor cells, K-562; assay type: cell-based; settings: K562, 48 hours
Protocol: as §1, §2

[5] = system: C-6 (rat neurogliocytoma cell line); test: in vitro growth inhibition of tumor cells, C-6; assay type: cell-based; settings: C6, 48 hours
Protocol: as §1, §2

[6] = system: human non-small cell lung cancer H460 xenograft tumor; settings: for Tumor volume / RTV / T/C / Gross tumor volume: 20 mg/kg iv
Protocol: as §6, §7, §8, §9, §10, §11, §12, §13

[7] = system: Hep G2 (human hepatic cancer cell line); test: in vitro growth inhibition of tumor cells, Hep G2; assay type: cell-based; settings: HepG2, 48 hours
Protocol: as §1, §2

[8] = system: HL-60 (human leukemia cell line); test: in vitro growth inhibition of tumor cells, HL-60; assay type: cell-based; settings: 48 hours
Protocol: as §1, §2

[9] = system: Hela (human cervical cancer cell line); test: in vitro growth inhibition of tumor cells, Hela; assay type: cell-based; settings: hela, 48 hours
Protocol: as §1, §2

transplanted tumor S180 = system: transplanted tumor S180
Protocol: (§3) Experimental groups: three dosage groups were set up for DPT, 10, 5 and 2.5 mg/kg; the blank control group: cyclophosphamide (CTX) group, Etoposide group 20 mg/kg.
(§4) Administration route: injection via tail vein, it is administered in a dosage of 0.4 ml/20 g body weight. Administration period: the drug is administrated 24 hours after the inoculation, once every two days for four times in total.
(§5) Experimental methods: 60 ICR mice with standard weight of from 18 to 22 g are inoculated with S-180 or Heps solid tumor according to the test method for transplanted tumors, hypodermic inoculation with 0.2 ml is carried out in the armpit in the anterior limb of every mouse. The body weight is determined 24 hours after the inoculation and they are randomly divided into six groups: the blank control group, the CTX group (20 mg/kg), the Etoposide group (20 mg/kg), the DPT group (10, 5 and 2.5 mg/Kg). The drug is administrated 24 hours after the inoculation once for every two days for 4 times, and tumor-bearing mice are killed on the next after drug withdrawal and their body weights are measured, and the separated tumor mess is weighed, and all of the data are subjected to statistical analyses (t-test).

transplanted tumor Heps = system: transplanted tumor Heps
Protocol: as §3, §4, §5

[10] = H460 nude mice, 20 mg/kg iv three times a week, 9 times, 21 days
[11] = S180 mice, 20 mg/kg iv, once every two days, four times
[12] = Heps mice, 20 mg/kg iv, once every two days, four times

COc1cc([C@@H]2c3cc4c(cc3[C@@H](O[C@@H]3O[C@@H]5CO[C@@H](C)O[C@H]5[C@H](O)[C@H]3O)[C@H]3COC(=O)[C@H]23)OCO4)cc(OC)c1O [Etoposide, reference compound]
Inhibition effects on in vitro growth ([1]; 5 × 10^−5M): 61.14% | Inhibition effects on in vitro growth ([1]; 10^−5M): 10.55% | Inhibition effects on in vitro growth ([1]; 10^−6M): 8.15% | Inhibition effects on in vitro growth ([1]; 10^−7M): 7.67% | Inhibition effects on in vitro growth ([1]; 10^−8M): 3.41% | Inhibition effects on in vitro growth ([2]; 5 × 10^−5M): 68.67% | Inhibition effects on in vitro growth ([2]; 10^−5M): 22.99% | Inhibition effects on in vitro growth ([2]; 10^−6M): 5.18% | Inhibition effects on in vitro growth ([2]; 10^−7M): 3.68% | Inhibition effects on in vitro growth ([2]; 10^−8M): 2.3% | Initial body weight [3]: 22.67 ± 1.37 g | toxicity [3]: obvious toxicity | Inhibition effects on in vitro growth ([4]; 5 × 10^−5M): 67.32% | Inhibition effects on in vitro growth ([4]; 10^−5M): 15.04% | Inhibition effects on in vitro growth ([4]; 10^−6M): 4.45% | Inhibition effects on in vitro growth ([4]; 10^−7M): 3.08% | Inhibition effects on in vitro growth ([4]; 10^−8M): 2.38% | Inhibition effects on in vitro growth ([5]; 5 × 10^−5M): 66.2% | Inhibition effects on in vitro growth ([5]; 10^−5M): 59.96% | Inhibition effects on in vitro growth ([5]; 10^−6M): 49.99% | Inhibition effects on in vitro growth ([5]; 10^−7M): 16.67% | Inhibition effects on in vitro growth ([5]; 10^−8M): 9.98% | Tumor volume ([6]; 0 d): 275 ± 130 mm^3 | RTV ([6]; 2 d): 1.306 ± 0.356 | T/C ([6]; 2 d): 81.24% | Tumor volume ([6]; 2 d): 352 ± 169 mm^3 | RTV ([6]; 4 d): 2.012 ± 0.744 | T/C ([6]; 4 d): 77.07% | Tumor volume ([6]; 4 d): 534 ± 277 mm^3 | RTV ([6]; 6 d): 2.048 ± 0.441 | T/C ([6]; 6 d): 66.86% | Tumor volume ([6]; 6 d): 531 ± 186 mm^3 | RTV ([6]; 8 d): 2.054 ± 0.776 | T/C ([6]; 8 d): 46.77% | Tumor volume ([6]; 8 d): 539 ± 255 mm^3 | Gross tumor volume ([6]; 10 d): 482 ± 216 mm^3 | RTV ([6]; 10 d): 1.846 ± 0.688 | T/C ([6]; 10 d): 36.90% | Gross tumor volume ([6]; 12 d): 534 ± 254 mm^3 | RTV ([6]; 12 d): 2.189 ± 1.212 | T/C ([6]; 12 d): 29.47% | RTV ([6]; 14 d): 2.898 ± 1.741 | T/C ([6]; 14 d): 34.16% | Tumor volume ([6]; 14 d): 682 ± 311 mm^3 | RTV ([6]; 16 d): 3.115 ± 1.969 | T/C ([6]; 16 d): 31.23% | Tumor volume ([6]; 16 d): 730 ± 384 mm^3 | RTV ([6]; 18 d): 3.876 ± 2.645 | T/C ([6]; 18 d): 34.39% | Tumor volume ([6]; 18 d): 873 ± 407 mm^3 | RTV ([6]; 21 d): 3.706 ± 1.796 | T/C ([6]; 21 d): 32.18% | Tumor volume ([6]; 21 d): 872 ± 305 mm^3 | Tumor weight [6, 10]: 1.27 ± 0.61 g | Tumor-inhibition rate [6, 10]: 61.08% | Inhibition effects on in vitro growth ([7]; 5 × 10^−5M): 97.14% | Inhibition effects on in vitro growth ([7]; 10^−5M): 38.94% | Inhibition effects on in vitro growth ([7]; 10^−6M): 8.71% | Inhibition effects on in vitro growth ([7]; 10^−7M): 2.02% | Inhibition effects on in vitro growth ([7]; 10^−8M): 1.71% | Inhibition effects on in vitro growth ([8]; 5 × 10^−5M): 94.85% | Inhibition effects on in vitro growth ([8]; 10^−5M): 16.01% | Inhibition effects on in vitro growth ([8]; 10^−6M): 8.45% | Inhibition effects on in vitro growth ([8]; 10^−7M): 3.48% | Inhibition effects on in vitro growth ([8]; 10^−8M): 1.91% | Inhibition effects on in vitro growth ([9]; 5 × 10^−5M): 97.26% | Inhibition effects on in vitro growth ([9]; 10^−5M): 24.71% | Inhibition effects on in vitro growth ([9]; 10^−6M): 6.87% | Inhibition effects on in vitro growth ([9]; 10^−7M): 5.63% | Inhibition effects on in vitro growth ([9]; 10^−8M): 4.35% | Tumor weight (transplanted tumor S180; [11]): 1.05 ± 0.35 g | Tumor-inhibition rate (transplanted tumor S180; [11]): 43.03% | Body weight After administration (transplanted tumor S180; mouse, in vivo, iv, 20 mg/kg): 23.30 ± 1.83 g | Body weight Before administration (transplanted tumor S180; mouse, in vivo, iv, 20 mg/kg): 19.30 ± 1.06 g | Tumor inhibition rate (transplanted tumor Heps; [12]): 59.31% | Tumor weight (transplanted tumor Heps; [12]): 0.80 ± 0.37 g | Body weight After administration (transplanted tumor Heps; mouse, in vivo, iv, 20 mg/kg): 22.40 ± 2.41 g | Body weight Before administration (transplanted tumor Heps; mouse, in vivo, iv, 20 mg/kg): 21.10 ± 1.37 g

O=P1(N(CCCl)CCCl)NCCCO1 (centres unmarked) [CTX, cyclophosphamide, reference compound]
Body weight Before administration (transplanted tumor S180; S180 mice, 20 mg/kg iv group): 19.80 ± 1.69 g | Body weight After administration (transplanted tumor S180; [11]): 23.00 ± 2.50 g | Tumor weight (transplanted tumor S180; [11]): 0.98 ± 0.22 g | Tumor-inhibition rate (transplanted tumor S180; [11]): 46.77% | Body weight Before administration (transplanted tumor Heps; Heps mice, 20 mg/kg iv group): 21.30 ± 1.49 g | Body weight After administration (transplanted tumor Heps; [12]): 22.50 ± 3.69 g | Tumor inhibition rate (transplanted tumor Heps; [12]): 66.94% | Tumor weight (transplanted tumor Heps; [12]): 0.65 ± 0.21 g
